{
  "source": "paper PMC12860872",
  "about": "“Preclinical evaluation of DOTAGA.Glu.(FAPI)2 and DO3A.Glu.(FAPI)2 as theranostics with human dosimetry extrapolation to lutetium-177 and terbium-161 analogs” (European Journal of Nuclear Medicine and Molecular Imaging, 2025)",
  "assay": "Extrapolated human dosimetry (OLINDA/EXM, ICRP-89 phantoms)",
  "description": "To address inter-animal variability, the TIACs for each source organ were calculated from both the mean nTACs and the nTACs obtainend from fitting the mean ± 1 standard deviation (SD) of the normalized time-activity data, providing upper and lower bounds.\nThe mice-to-human TIAC extrapolation accounted for species-specific differences in relative source organ masses, m(organ), as compared to the total body weight (WB), for the mice (m) and human (h) models respectively.\nThe human organ masses, m(organ)h, were obtained from ICRP-89 adult male and female reference phantoms, while the murine organ masses, m(organ)m, were derived from the standard MOBY mouse model. The extrapolated human TIACs, TIACh were entered in the OLINDA/EXM software to compute the absorbed doses to target organs and the effective dose for adult male, female, and gender-averaged human models. […]\nThe TIACs, for [177Lu]Lu-DOTAGA.Glu.(FAPI)2 and [177Lu]Lu-DO3A.Glu.(FAPI)2, were determined by time integration of the nTACs. To account for the inter-animal variability, the TIACs for each source organ were calculated using both the mean nTACs and the nTACs obtainend from fitting the mean ±1 standard deviation (SD) of the normalized time-activity data. This approach provided the upper and the lower bounds for the estimated TIACs.\nThe mice-to-human TIAC extrapolation was obtained considering the different (species-specific) relative source organ masses, m(organ), as compared to the total body weight (WB), for the mice (m) and human (h) models respectively.\nThe human organ masses, m(organ)h, were obtained from the adult male and female reference models phantoms defined in ICRP-89, while the murine organ masses, m(organ)m, were derived from the standard MOBY mouse model. The extrapolated human TIACs values, TIACh, for each source organ were input into the kinetic module of the OLINDA/EXM software (version 2.1, HERMES Medical Solutions AB, Stockholm, Sweden) to compute the absorbed doses to target organs and the effective dose for adult male, female, and gender-averaged human models. […]",
  "key": {"[1]": {"settings": "ICRP 89 Adult Female, extrapolated"}, "[2]": {"settings": "ICRP 89 Adult Male, extrapolated"}},
  "note": "Where “and” joins values, the source holds several entries; their conditions need not be identical. Identical values can stand only once.",
  "data": [
    {"smiles": "N#C[C@@H]1CC(F)(F)CN1C(=O)CNC(=O)c1ccnc2ccc(OCCCCNC(=O)CC[C@H](NC(=O)CCC(C(=O)O)N3CCN(CC(=O)[O-])CCN(CC(=O)[O-])CCN(CC(=O)[O-])CC3)C(=O)NCCCCOc3ccc4nccc(C(=O)NCC(=O)N5CC(F)(F)C[C@H]5C#N)c4c3)cc12.[161Tb+3]", "note": "(stereo partly drawn) [[^161Tb]Tb-DOTAGA.Glu.(FAPI)2]", "values": [
      {"measurement": "Absorbed dose (AD average) Adrenals", "setting": "[1]", "value": "2.06E-02", "unit": "mGy/Mbq"},
      {"measurement": "Absorbed dose (AD average) Brain", "setting": "[1]", "value": "4.11E-02", "unit": "mGy/Mbq"},
      {"measurement": "Absorbed dose (AD average) Breasts", "setting": "[1]", "value": "3.94E-02", "unit": "mGy/Mbq"},
      {"measurement": "Absorbed dose (AD average) Esophagus", "setting": "[1]", "value": "4.21E-02", "unit": "mGy/Mbq"},
      {"measurement": "Absorbed dose (AD average) Eyes", "setting": "[1]", "value": "4.11E-02", "unit": "mGy/Mbq"},
      {"measurement": "Absorbed dose (AD average) Gallbladder Wall", "setting": "[1]", "value": "4.47E-02", "unit": "mGy/Mbq"},
      {"measurement": "Absorbed dose (AD average) Heart Wall", "setting": "[1]", "value": "6.03E-02", "unit": "mGy/Mbq"},
      {"measurement": "Absorbed dose (AD average) Kidneys", "setting": "[1]", "value": "6.83E-02 ± 0.003 mGy/Mbq and 6.83E-02 mGy/Mbq"},
      {"measurement": "Absorbed dose (AD average) Left colon", "setting": "[1]", "value": "4.20E-02", "unit": "mGy/Mbq"},
      {"measurement": "Absorbed dose (AD average) Liver", "setting": "[1]", "value": "2.78E-01 ± 0.02 mGy/Mbq and 2.78E-01 mGy/Mbq"},
      {"measurement": "Absorbed dose (AD average) Lungs", "setting": "[1]", "value": "6.37E-02 ± 0.01 mGy/Mbq and 6.37E-02 mGy/Mbq"},
      {"measurement": "Absorbed dose (AD average) Osteogenic Cells", "setting": "[1]", "value": "1.23E-01 ± 0.01 mGy/Mbq and 1.23E-01 mGy/Mbq"},
      {"measurement": "Absorbed dose (AD average) Ovaries", "setting": "[1]", "value": "4.17E-02", "unit": "mGy/Mbq"},
      {"measurement": "Absorbed dose (AD average) Pancreas", "setting": "[1]", "value": "5.34E-02 ± 0.003 mGy/Mbq and 5.34E-02 mGy/Mbq"},
      {"measurement": "Absorbed dose (AD average) Rectum", "setting": "[1]", "value": "4.17E-02", "unit": "mGy/Mbq"},
      {"measurement": "Absorbed dose (AD average) Red Marrow", "setting": "[1]", "value": "4.59E-02 ± 0.01 mGy/Mbq and 4.59E-02 mGy/Mbq"},
      {"measurement": "Absorbed dose (AD average) Right colon", "setting": "[1]", "value": "4.24E-02", "unit": "mGy/Mbq"},
      {"measurement": "Absorbed dose (AD average) Salivary Glands", "setting": "[1]", "value": "1.73E-01 ± 0.01 mGy/Mbq and 1.73E-01 mGy/Mbq"},
      {"measurement": "Absorbed dose (AD average) Small Intestine", "setting": "[1]", "value": "4.17E-02", "unit": "mGy/Mbq"},
      {"measurement": "Absorbed dose (AD average) Spleen", "setting": "[1]", "value": "4.83E-02 ± 0.01 mGy/Mbq and 4.83E-02 mGy/Mbq"},
      {"measurement": "Absorbed dose (AD average) Stomach Wall", "setting": "[1]", "value": "4.21E-02", "unit": "mGy/Mbq"},
      {"measurement": "Absorbed dose (AD average) Thymus", "setting": "[1]", "value": "4.16E-02", "unit": "mGy/Mbq"},
      {"measurement": "Absorbed dose (AD average) Thyroid", "setting": "[1]", "value": "4.05E-02", "unit": "mGy/Mbq"},
      {"measurement": "Absorbed dose (AD average) Total Body", "setting": "[1]", "value": "6.01E-02 ± 0.01 mGy/Mbq and 6.01E-02 mGy/Mbq"},
      {"measurement": "Absorbed dose (AD average) Urinary Bladder Wall", "setting": "[1]", "value": "4.10E-02", "unit": "mGy/Mbq"},
      {"measurement": "Absorbed dose (AD average) Uterus", "setting": "[1]", "value": "4.14E-02", "unit": "mGy/Mbq"},
      {"measurement": "Effective dose (average)", "setting": "[1]", "value": "5.28E-02"},
      {"measurement": "Absorbed dose (AD average) Adrenals", "setting": "[2]", "value": "1.63E-02", "unit": "mGy/Mbq"},
      {"measurement": "Absorbed dose (AD average) Brain", "setting": "[2]", "value": "2.76E-02", "unit": "mGy/Mbq"},
      {"measurement": "Absorbed dose (AD average) Esophagus", "setting": "[2]", "value": "2.88E-02", "unit": "mGy/Mbq"},
      {"measurement": "Absorbed dose (AD average) Eyes", "setting": "[2]", "value": "2.76E-02", "unit": "mGy/Mbq"},
      {"measurement": "Absorbed dose (AD average) Gallbladder Wall", "setting": "[2]", "value": "3.50E-02", "unit": "mGy/Mbq"},
      {"measurement": "Absorbed dose (AD average) Heart Wall", "setting": "[2]", "value": "5.00E-02", "unit": "mGy/Mbq"},
      {"measurement": "Absorbed dose (AD average) Kidneys", "setting": "[2]", "value": "5.60E-02 ± 0.002 mGy/Mbq and 5.60E-02 mGy/Mbq"},
      {"measurement": "Absorbed dose (AD average) Left colon", "setting": "[2]", "value": "1.18E-01", "unit": "mGy/Mbq"},
      {"measurement": "Absorbed dose (AD average) Liver", "setting": "[2]", "value": "2.29E-01 ± 0.02 mGy/Mbq and 2.29E-01 mGy/Mbq"},
      {"measurement": "Absorbed dose (AD average) Lungs", "setting": "[2]", "value": "5.19E-02 ± 0.004 mGy/Mbq and 5.19E-02 mGy/Mbq"},
      {"measurement": "Absorbed dose (AD average) Osteogenic Cells", "setting": "[2]", "value": "1.24E-01 ± 0.01 mGy/Mbq and 1.24E-01 mGy/Mbq"},
      {"measurement": "Absorbed dose (AD average) Pancreas", "setting": "[2]", "value": "4.25E-02 ± 0.002 mGy/Mbq and 4.25E-02 mGy/Mbq"},
      {"measurement": "Absorbed dose (AD average) Prostate", "setting": "[2]", "value": "2.77E-02", "unit": "mGy/Mbq"},
      {"measurement": "Absorbed dose (AD average) Rectum", "setting": "[2]", "value": "1.17E-01", "unit": "mGy/Mbq"},
      {"measurement": "Absorbed dose (AD average) Red Marrow", "setting": "[2]", "value": "3.37E-02 ± 0.003 mGy/Mbq and 3.37E-02 mGy/Mbq"},
      {"measurement": "Absorbed dose (AD average) Right colon", "setting": "[2]", "value": "7.38E-02", "unit": "mGy/Mbq"},
      {"measurement": "Absorbed dose (AD average) Salivary Glands", "setting": "[2]", "value": "1.43E-01 ± 0.01 mGy/Mbq and 1.43E-01 mGy/Mbq"},
      {"measurement": "Absorbed dose (AD average) Small Intestine", "setting": "[2]", "value": "5.69E-02 ± 0.02 mGy/Mbq and 5.69E-02 mGy/Mbq"},
      {"measurement": "Absorbed dose (AD average) Spleen", "setting": "[2]", "value": "3.92E-02 ± 0.01 mGy/Mbq and 3.92E-02 mGy/Mbq"},
      {"measurement": "Absorbed dose (AD average) Stomach Wall", "setting": "[2]", "value": "4.15E-02", "unit": "mGy/Mbq"},
      {"measurement": "Absorbed dose (AD average) Testes", "setting": "[2]", "value": "2.65E-02", "unit": "mGy/Mbq"},
      {"measurement": "Absorbed dose (AD average) Thymus", "setting": "[2]", "value": "2.77E-02", "unit": "mGy/Mbq"},
      {"measurement": "Absorbed dose (AD average) Thyroid", "setting": "[2]", "value": "2.76E-02", "unit": "mGy/Mbq"},
      {"measurement": "Absorbed dose (AD average) Total Body", "setting": "[2]", "value": "4.51E-02 ± 0.01 mGy/Mbq and 4.51E-02 mGy/Mbq"},
      {"measurement": "Absorbed dose (AD average) Urinary Bladder Wall", "setting": "[2]", "value": "2.75E-02", "unit": "mGy/Mbq"},
      {"measurement": "Effective dose (average)", "setting": "ICRP 89 Adult Male, extrapolated, in mSv/MBq (unit assumed)", "value": "4.69E-02"},
      {"measurement": "higher tissue doses vs. the 177Lu-labeled analogs", "setting": "human extrapolation, average over tissues", "value": "~ 38%"}
    ]}
  ]
}
